Experiments:
[1] = system: DLD-1-BRCA2 KO (BRCA2 KO); assay: Growth inhibition of DLD-1-BRCA2 KO, 12-day culture, photographed (Example 3); assay type: cell-based; conditions: 1 μM; day 12
Protocol: (§1) DLD-1 cells (parental), DLD-1-BRCA2 KO (BRCA2 KO), or DLD-1-BRCA2 KO+BRCA2 WT (BRCA2 KO+WT) were seeded at 3×10^3 cells per well in a 6-well plate and incubated at 37 °C under 5% CO2. After removing the medium, a medium containing no drug, or containing 100 nM E7820, 1 μM E7820, 1 μM Indisulam (E7070), or 1 μM olaparib was added, and the cells were cultured at 37 °C under 5% CO2. The medium was replaced with fresh medium containing the same concentration of the drug on days 3, 6, and 9, with the day of drug addition being day 0. On day 12, the cells were photographed, and the sensitivity of the cells to each drug was evaluated.

RBM39 (CAPERα) = conditions: mechanism of action; Non Patent Literature 1; cited from earlier work
[2] = system: PDX tumors (cholangiocarcinoma, pancreatic cancer, gastric cancer, endometrial cancer, uterine sarcoma); assay: Therapeutic effect of E7820 in patient-derived xenograft (PDX) mouse models and relationship with gene mutations (Example 1); assay type: in vivo, human patient-derived tumors in NOG mice
Protocol: In 30 cases of patient-derived xenograft (PDX) mouse models, the therapeutic effect of the cancer therapeutic E7820 that regulates splicing function and the presence or absence of various gene mutations were evaluated.
PDX model mice were prepared by transplanting 2-3 mm square PDX tumor fragments subcutaneously into the back of test animals and allowing them to grow. The test animals used were NOD.Cg-Prkdcscidll2rgtmlSug/ShiJic (NOG mice), female, and 6 weeks old or older. Tumor tissues from 30 patients, including 9 cases of cholangiocarcinoma, 9 cases of pancreatic cancer, 6 cases of gastric cancer, 3 cases of endometrial cancer, and 3 cases of uterine sarcoma, were used as tumor tissues. Grouping was performed when the average tumor volume of the experimental animals reached a size suitable for grouping (approximately 200 mm^3), with each group consisting of n=3-5 mice.
From the day of grouping, E7820 was administered orally at a dose of 100 mg/kg once daily to the 30 PDX model mice prepared in 1-1. Body weight and tumor volume were measured twice a week during the observation period from the day before drug administration and from the day drug administration started (day 0) to day 21. Tumor volume was measured by measuring the long and short diameters of the tumor using calipers and calculating the tumor volume according to the following formula. For animals with no detectable tumor, the tumor volume was set to 0.00 mm^3.
Tumor volume (mm^3)=½×long diameter (mm)×short diameter (mm)×short diameter (mm)
Whole exome sequencing (WES), one of the next-generation sequencing methods, was performed on genomic DNA extracted from the PDX using the NovaSeq 6000 system (Illumina), and mutation analysis was conducted.

DLD-1 cells (parental) = assay: Growth inhibition of DLD-1 cells (parental), 12-day culture, photographed (Example 3); assay type: cell-based; conditions: day 12
Protocol: as §1

[3] = system: DLD-1-BRCA2 KO+BRCA2 WT (BRCA2 KO+WT); assay: Growth inhibition of DLD-1-BRCA2 KO+BRCA2 WT, 12-day culture, photographed (Example 3); assay type: cell-based; conditions: 1 μM; day 12
Protocol: as §1

γH2AX in wild-type DLD-1 = assay: Induction of DNA double-strand breaks (γH2AX Western blotting) in wild-type DLD-1 (Example 4); assay type: cell-based; conditions: 1 μM; 72 hours
Protocol: DLD-1 cells (parental), DLD-1-BRCA2 KO (BRCA2 KO), or DLD-1-BRCA2 KO+BRCA2 WT (BRCA2 KO+WT) were seeded at 1×10^6 cells per well in a 6-well plate and incubated at 37 °C under 5% CO2. After removing the medium, a medium containing no drug, or containing 1 μM E7820, 1 μM Indisulam (E7070), or 1 μM olaparib was added, and the cells were cultured at 37 °C under 5% CO2 for 72 hours. After removing the medium, the cells were washed with PBS, cooled on ice, and RIPA buffer (containing protease and phosphatase inhibitors, Proteintech) was added. The cells were collected using a cell scraper. The collected samples were incubated on ice for 30 minutes, then centrifuged at 12,000×g for 15 minutes at 4 °C to pellet the cell debris. The supernatant was transferred to a new microtube without touching the pellet to obtain the lysate. The obtained lysate was used for SDS-PAGE, membrane transfer, and Western blotting to evaluate the induction of DNA double-strand breaks. The antibodies used for Western blotting were Anti-phospho-Histone H2A.X (Ser139) Antibody (anti-yH2AX antibody, cat #05-636, Sigma-Aldrich) and GAPDH (14C10) Rabbit mAb (anti-GAPDH antibody, cat #2118, Cell Signaling Technology).

[4] = 100 mg/kg orally once daily, day 21, among 14 cases with tumor reduction
[5] = 100 mg/kg orally once daily, day 21, among 16 cases without tumor reduction

Cc1ccc(NS(=O)(=O)c2cccc(C#N)c2)c2[nH]cc(C#N)c12 [E7820, N-(3-cyano-4-methyl-1H-indol-7-yl)-3-cyanobenzenesulfonamide]
growth inhibitory effect [1]: significant growth inhibitory effects | induction of cell death [1]: induction of cell death were observed | remaining cells [1]: almost no remaining cells | promotion of the proteasomal degradation of RBM39 (RBM39 (CAPERα)): promotion of the proteasomal degradation of RBM39 | number of cases with mutations in one or more of BRCA1, BRCA2, ATM, ATR, and BAP1 among the 14 cases with tumor reduction effect [2, 4]: 11 cases | percentage of cases with mutations in one or more of BRCA1, BRCA2, ATM, ATR, and BAP1 among the 14 cases with tumor reduction effect [2, 4]: 79% | number of cases with mutations in one or more of the five genes among the 16 cases without tumor reduction effect [2, 5]: 3 cases | percentage of cases with mutations in one or more of the five genes among the 16 cases without tumor reduction effect [2, 5]: 19% | PDX model mice in which the tumor volume on day 21 was smaller than on day 0 (tumor reduction effect) ([2]; 100 mg/kg orally once daily, day 21 vs day 0): 14 out of the 30 PDX model mice | cases in which no tumor reduction effect was observed ([2]; 100 mg/kg orally once daily, day 21 vs day 0, 30 PDX models): 16 cases | tumor reduction effect in model mouse transplanted with a tumor having a mutation in a homologous recombination repair-related gene ([2]; PDX model mouse, tumor with mutation in homologous recombination repair-related gene): high tumor reduction effect | growth inhibitory effect (DLD-1 cells (parental); 100 nM): no growth inhibitory effect was observed | growth inhibitory effect (DLD-1 cells (parental); 1 μM): no growth inhibitory effect was observed | growth inhibitory effect [3]: growth inhibitory effects were observed | growth of surviving cells [3]: the growth of surviving cells was observed

NS(=O)(=O)c1ccc(S(=O)(=O)Nc2cccc3c(Cl)c[nH]c23)cc1 [Indisulam, N-(3-chloro-1H-indol-7-yl)-4-sulfamoylbenzenesulfonamide]
growth inhibitory effect [1]: significant growth inhibitory effects | induction of cell death [1]: induction of cell death were observed | remaining cells [1]: almost no remaining cells | promotion of the proteasomal degradation of RBM39 (RBM39 (CAPERα)): promotion of the proteasomal degradation of RBM39 | growth inhibitory effect (DLD-1 cells (parental); 1 pM (so in the source)): no growth inhibitory effect was observed | growth inhibitory effect [3]: growth inhibitory effects were observed | growth of surviving cells [3]: the growth of surviving cells was observed

Nc1ccc(S(=O)(=O)Nc2cnc3c(Cl)cccc3n2)cc1 [NSC339004, 4-amino-N-(5-chloroquinoxalin-2-yl)benzenesulfonamide]
promotion of the proteasomal degradation of RBM39 (RBM39 (CAPERα)): promotion of the proteasomal degradation of RBM39

O=C(c1cc(Cc2n[nH]c(=O)c3ccccc23)ccc1F)N1CCN(C(=O)C2CC2)CC1 [olaparib]
γH2AX levels (γH2AX in wild-type DLD-1): increase in γH2AX levels | growth inhibitory effect [1]: significant growth inhibitory effects | induction of cell death [1]: induction of cell death were observed | remaining cells [1]: almost no remaining cells | growth inhibitory effect (DLD-1 cells (parental); 1 μM): no growth inhibitory effect was observed | growth inhibitory effect [3]: growth inhibitory effects were observed | growth of surviving cells [3]: the growth of surviving cells was observed
